Measurements published in patent US9550763B2, “Heterocyclic ring and carbocyclic derivative” (Shionogi & Co., Ltd., priority 2012, dated 2017).

These compounds were tested against T1, human P2X3 receptor (Homo sapiens (Human), UniProt P56373) (assay: Evaluation of human P2X3 receptor inhibitory activity (Test Example 1-1, FDSS 3000, 96-well, 50 nM ATP)). Settings: human P2X3 receptor in C6BU-1 cells; Test Example 1-1 (compounds I-001 to I-300).
T1 sequence (P56373 whole entry): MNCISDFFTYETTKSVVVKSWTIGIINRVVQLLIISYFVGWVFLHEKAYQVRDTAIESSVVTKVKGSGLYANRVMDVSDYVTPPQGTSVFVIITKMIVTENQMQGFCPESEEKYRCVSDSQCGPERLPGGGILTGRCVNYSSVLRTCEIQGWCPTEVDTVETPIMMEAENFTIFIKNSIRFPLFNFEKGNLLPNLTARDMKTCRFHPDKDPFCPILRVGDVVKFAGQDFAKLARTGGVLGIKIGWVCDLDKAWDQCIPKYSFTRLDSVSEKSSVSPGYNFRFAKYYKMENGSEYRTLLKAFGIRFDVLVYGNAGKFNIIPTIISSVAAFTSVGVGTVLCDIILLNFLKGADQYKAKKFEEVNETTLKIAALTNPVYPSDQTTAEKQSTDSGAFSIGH
Format: cell-based
Summary of the method: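 C6BU-1 cells stably expressing human P2X3, loaded with 4 μM Fluo-3-AM (pH 7.5), preincubated 5 min with compound before 50 nM ATP challenge; fluorescence followed 4 min on FDSS 3000. IC50 derived from peak/baseline fluorescence ratio, no-compound as 0% and buffer-instead-of-ATP as 100% inhibition.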
Work on `Cc1noc(C)c1C(=O)Nc1c[nH]/c(=N\c2ccc(Oc3ccon3)cc2)n(Cc2ccc(Cl)cc2)c1=O` [Compound I-256] yielded an IC50 of 14 nM.

Each compound was assayed against T1, human P2X3 receptor (assay: Evaluation of human P2X3 receptor inhibitory activity (Test Example 1-2, FLIPR 384, 384-well, 150 nM ATP)). Settings: C6BU-1 cell transfected with human P2X3 receptor gene; method of Test Example 1-2 (compounds I-301 to I-483); read-out: IC50 (human P2X3 receptor inhibitory activity).
Format: cell-based
Protocol: Stably expressing cell line (C6BU-1 cell transfected with human P2X3 receptor gene (GenBank accession number Y07683) was used. The cells were seeded in a 384-well microtiter plate at a concentration of 3000 cells/well and cultured in the medium (7.0% fetal bovine serum, 7.0% horse serum, 1% antibiotic and antifungal in DMEM) for one day at 37° C. under 5% carbon dioxide atmosphere. The medium was replaced with 4 μM Fluo-3-AM solution (20 mM HEPES, […], 5.27 mM KCl, 0.9 mM MgCl2, 1.26 mM CaCl2, 5.6 mM D-glucose, 2.5 mM probenecid, 0.5% BSA, and 0.04% Pluronic F-127, pH 7.5) and incubated at 37° C. under 5% dioxide carbon atmosphere for one hour. The plate was washed with washing buffer (20 mM HEPES, 137 mM NaCl, 5.27 mM KCl, 0.9 mM MgCl2, 1.26 mM CaCl2, 5.6 mM D-glucose, 2.5 mM probenecid, pH7.5), and each well was added with 20 μL of this buffer. The plate was placed in High-Throughput Screening System FLIPR 384 (Molecular Device Co.). Measurement of fluorescence intensity by FLIPR 384 was started, and 20 μL of DMSO solutions containing different concentrations of the test compound as prepared by dilution with dilution buffer (20 mM HEPES, 137 mM NaCl, 5.27 mM KCl, 0.9 mM MgCl2, 1.26 mM CaCl2, 5.6 mM D-glucose, 2.5 mM probenecid, 0.1% Pluronic F-127, pH 7.5) were dispensed to each well through the built-in automatic dispenser. Five minutes after, 150 nM ATP solution (25 μL) prepared by dilution with the dilution buffer was dispensed through the built-in automatic dispenser, and the measurement of fluorescence intensity was continued for 4 min. For each well, the specific maximum fluorescence intensity was calculated as the ratio of the maximum fluorescence intensity after addition of the ATP solution to the fluorescence intensity at the starting of the measurement. The 50% inhibitory concentration (IC50) was calculated under the assumption that the specific maximum fluorescence intensity without test compound is 0% inhibition and that the specific maximum fluorescence intensity when the dilution buffer was added in place of ATP solution is 100% inhibition, to evaluate the inhibitory activity of the test compound. The specific maximum fluorescence intensity and IC50 were calculated using Spotfire (Science & Technology Systems, Inc.)
The data of the compounds I-001 to I-300 are the results by the method mentioned in Test Example 1-1, and the data of the compounds I-301 to I-483 are the results by the method mentioned in Test Example 1-2.
`O=c1cc[nH]/c(=N\c2ccc(Oc3ccon3)cc2)n1Cc1ccc(Cl)cc1` [Compound I-447] gave an IC50 of less than 30000 nM. `CC(C)n1ccc(Nc2ccc(Oc3cccc(C(N)=O)n3)cc2)c(Cc2ccc(Cl)cc2)c1=O` [Compound I-467] showed an IC50 of less than 30000 nM. Work on `COC(=O)c1cccc(Oc2ccc(Nc3ccn(C(C)C)c(=O)c3Cc3ccc(Cl)cc3)cc2)n1` [Compound I-465, 3-(4-chloro-benzyl)-1-isopropyl-4-[4-(6-methoxycarbonyl-2-pyridyloxy)phenylamino]pyridin-2(1H)-one] yielded an IC50 of less than 30000 nM. For `CN(C)c1ncc(Nc2ccc(Oc3ccc(F)cn3)cc2)c(Cc2ccc(F)cc2)n1` [Compound I-481, 2-dimethylamino-4-(4-fluorobenzyl)-5-[4-(5-fluoro-2-pyridyloxy)phenylamino]pyrimidine], the IC50 was less than 30000 nM.

Same assay, conditions: human P2X3 receptor in C6BU-1 cells; Test Example 1-2 (compounds I-301 to I-483); read-out: P2X3 IC50
With `COC(=O)c1nnc(-c2c[nH]/c(=N\c3ccc(Oc4ccon4)cc3)n(Cc3ccc(Cl)cc3)c2=O)o1` [Compound I-438] the IC50 was 109 nM. Work on `COCCCNC(=O)c1cn(Cc2ccc(Cl)cc2)c(Nc2ccc(Oc3cccc(F)n3)cc2)nc1=O` [Compound I-373] yielded an IC50 of 136 nM. `COCCn1c(=O)cc(Nc2ccc(Oc3cccc(C(=O)O)n3)c(C)n2)n(Cc2ccc(Cl)cc2)c1=O` [Compound I-324] gave an IC50 of 14 nM. Compound `Cc1noc(-c2c[nH]/c(=N\c3ccc(Oc4ncc(C(=O)O)s4)cc3)n(Cc3ccc(Cl)cc3)c2=O)n1` [Compound I-314] has an IC50 of 10 nM. `O=C(NCC1COCCO1)c1cn(Cc2ccc(Cl)cc2)c(Nc2ccc(Oc3cccc(F)n3)cc2)nc1=O` (stereo not drawn) [Compound I-379] was tested, and the IC50 was 96 nM. For `CN(C)C(=O)c1c[nH]/c(=N\c2ccc(Oc3ccon3)cc2)n(Cc2ccc(Cl)cc2)c1=O` [Compound I-346], the IC50 was 346 nM. Work on `CCc1c[nH]c2cc(Nc3ncc(NC(=O)C4CCOCC4)c(=O)n3Cc3ccc(Cl)cc3)ccc12` [Compound I-416] yielded an IC50 of 406 nM. With `Cc1ccccc1Cn1cc(C(=O)NC2CCOCC2)c(=O)nc1Nc1ccc(Oc2cccc(F)n2)cc1` [Compound I-357] the IC50 was 781 nM. With `CC(=O)NCCNC(=O)c1cn(Cc2ccc(Cl)cc2)c(Nc2ccc(Oc3cccc(F)n3)cc2)nc1=O` [Compound I-370] the IC50 was 384 nM. For `O=C(Nc1cnoc1)c1cn(Cc2ccc(Cl)cc2)c(Nc2ccc(Oc3cccc(F)n3)cc2)nc1=O` [Compound I-397], the IC50 was 56 nM. Compound `Cn1nccc1NC(=O)c1cn(Cc2ccc(Cl)cc2)c(Nc2ccc(Oc3cccc(F)n3)cc2)nc1=O` [Compound I-391] has an IC50 of 30 nM. For `O=C1CCCN1c1c[nH]/c(=N\c2ccc(Oc3cccc(F)n3)cc2)n(Cc2ccc(Cl)cc2)c1=O` [Compound I-333], the IC50 was 149 nM. Work on `CC(c1ccc(Cl)cc1)n1cc(C(=O)NC2CCOCC2)c(=O)nc1Nc1ccc(Oc2cccc(F)n2)cc1` (stereo not drawn) [Compound I-358] yielded an IC50 of 23 nM. `NC(=O)c1cccc(Oc2ccc(/N=c3\[nH]cc(N4CCCC4=O)c(=O)n3Cc3ccc(Cl)cc3)cc2)n1` [Compound I-335] gave an IC50 of 227 nM. `O=c1c(-c2nnc(CO)o2)c[nH]/c(=N\c2ccc(Oc3ccon3)cc2)n1Cc1ccc(Cl)cc1` [Compound I-399] was tested, and the IC50 was 36 nM. For `Cc1nc(CNC(=O)c2cn(Cc3ccc(Cl)cc3)c(Nc3ccc(Oc4cccc(F)n4)cc3)nc2=O)no1` [Compound I-392], the IC50 was 128 nM. `CCC(=O)Nc1c[nH]/c(=N\c2ccc(Oc3cccc(CCC(=O)OC)c3)cc2)n(Cc2ccc(Cl)cc2)c1=O` [Compound I-330] showed an IC50 of 366 nM. In the case of `CC(C)c1c[nH]/c(=N\c2ccc(Oc3ccc(C(=O)O)cn3)cc2)n(Cc2ccc(Cl)cc2)c1=O` [Compound I-400], the IC50 is reported as 16 nM. For `O=C(Nc1cn[nH]c1)c1cn(Cc2ccc(Cl)cc2)c(Nc2ccc(Oc3cccc(F)n3)cc2)nc1=O` [Compound I-395], the IC50 was 22 nM. Compound `O=C(Nc1ccon1)c1cn(Cc2ccc(Cl)cc2)c(Nc2ccc(Oc3cccc(F)n3)cc2)nc1=O` [Compound I-372] has an IC50 of 51 nM. In the case of `COC(=O)[C@H](CO)NC(=O)c1c[nH]/c(=N\c2ccc(Oc3ccon3)cc2)n(Cc2ccc(Cl)cc2)c1=O` [Compound I-446], the IC50 is reported as 47 nM. `O=C(NCC1CCCC1)c1cn(Cc2ccc(Cl)cc2)c(Nc2ccc(Oc3cccc(F)n3)cc2)nc1=O` [Compound I-393] was tested, and the IC50 was 110 nM. In the case of `CCn1c(=O)cc(Nc2ccc3nc(C(F)F)sc3c2)n(Cc2ccc(Cl)cc2)c1=O` [Compound I-326], the IC50 is reported as 328 nM. In the case of `C=CCNC(=O)c1c[nH]/c(=N\c2ccc(Oc3ccon3)cc2)n(Cc2ccc(Cl)cc2)c1=O` [Compound I-450], the IC50 is reported as 21 nM. Work on `CC(C)(C)c1c[nH]/c(=N\c2ccc(Oc3cccc(C(=O)O)n3)cc2)n(Cc2ccc(Cl)cc2)c1=O` [Compound I-477] yielded an IC50 of 5 nM. For `CCCn1c(=O)c(F)c(Nc2ccc(Oc3cccc(C(=O)O)c3)cc2)n(Cc2ccc(Cl)cc2)c1=O` [Compound I-303], the IC50 was 109 nM. `O=C(O)c1cccc(Oc2ccc(/N=c3\[nH]cc(N4CCCC4=O)c(=O)n3Cc3ccc(Cl)cc3)cc2)n1` [Compound I-336] gave an IC50 of 41 nM. Work on `C[C@H](NC(=O)c1cn(Cc2ccc(Cl)cc2)c(Nc2ccc(Oc3cccc(F)n3)cc2)nc1=O)C(N)=O` [Compound I-381] yielded an IC50 of 4 nM. Compound `CCOc1cn(Cc2ccc(Cl)cc2)c(Nc2ccc(Oc3cccc(C#N)n3)cc2)nc1=O` [Compound I-429] has an IC50 of 441 nM. Work on `CC(C)c1c[nH]/c(=N\c2ccc(Oc3cncc(C(=O)O)c3)cc2)n(Cc2ccc(Cl)cc2)c1=O` [Compound I-401] yielded an IC50 of 12 nM. With `C#CCNC(=O)c1c[nH]/c(=N\c2ccc(Oc3ccc(F)cn3)cc2)n(Cc2ccc(Cl)cc2)c1=O` [Compound I-427] the IC50 was 5 nM. `Cc1nc(Nc2cc(=O)n(C[C@H](C)C(=O)O)c(=O)n2Cc2ccc(Cl)cc2)ccc1Oc1ccc(F)cn1` [Compound I-363] showed an IC50 of 8 nM. In the case of `CC(C)CNC(=O)c1cn(Cc2ccc(Cl)cc2)c(Nc2ccc(Oc3cccc(F)n3)cc2)nc1=O` [Compound I-374], the IC50 is reported as 46 nM. With `O=C(NC1(CO)CCOCC1)c1cn(Cc2ccc(Cl)cc2)c(Nc2ccc(Oc3cccc(F)n3)cc2)nc1=O` [Compound I-390] the IC50 was 59 nM. With `CCC(=O)Nc1c[nH]/c(=N\c2ccc(Oc3cccc(CC(=O)OC)c3)cc2)n(Cc2ccc(Cl)cc2)c1=O` [Compound I-331] the IC50 was 309 nM. Compound `CC(c1ccc(F)cc1)n1cc(C(=O)NC2CCOCC2)c(=O)nc1Nc1ccc(Oc2cccc(F)n2)cc1` (stereo not drawn) [Compound I-352] has an IC50 of 369 nM. Compound `COC(=O)[C@@H](C)Cn1c(=O)cc(Nc2ccc(Oc3ccc(F)cn3)c(C)n2)n(Cc2ccc(Cl)cc2)c1=O` [Compound I-362] has an IC50 of 7 nM. `O=C(NCCCO)c1cn(Cc2ccc(Cl)cc2)c(Nc2ccc(Oc3cccc(F)n3)cc2)nc1=O` [Compound I-418] was tested, and the IC50 was 45 nM. `O=C(NC1CCOCC1)c1cn(Cc2ccc(F)cc2F)c(Nc2ccc(Oc3cccc(F)n3)cc2)nc1=O` [Compound I-402] showed an IC50 of 9 nM. Work on `NNC(=O)c1c[nH]/c(=N\c2ccc(Oc3ccon3)cc2)n(Cc2ccc(Cl)cc2)c1=O` [Compound I-423] yielded an IC50 of 81 nM. `CCC(=O)Nc1c[nH]/c(=N\c2ccc(Oc3ccc(C(=O)OC)nn3)cc2)n(Cc2ccc(Cl)cc2)c1=O` [Compound I-305] was tested, and the IC50 was 5 nM. With `O=C1CCCN1C1=CN[C@@H](Nc2ccc(Oc3ccon3)cc2)N(Cc2ccc(Cl)cc2)C1=O` [Compound I-356] the IC50 was 212 nM. With `O=C(NC1CCOCC1)c1cn(Cc2ccc(Cl)cc2)c(Nc2ccc3nc(C(F)F)sc3c2)nc1=O` [Compound I-359] the IC50 was 57 nM. `O=C(O)c1cccc(Oc2ccc(/N=c3\[nH]cc(-c4ccccc4)c(=O)n3Cc3ccc(Cl)cc3)cc2)n1` [Compound I-422] showed an IC50 of 3 nM. `Cc1nc(Nc2cc(=O)n(CCCC(=O)O)c(=O)n2Cc2ccc(Cl)cc2)ccc1Oc1ccc(F)cn1` [Compound I-361] gave an IC50 of 32 nM. `O=C(N[C@@H]1CCOC1)c1cn(Cc2ccc(Cl)cc2)c(Nc2ccc(Oc3cccc(F)n3)cc2)nc1=O` [Compound I-398] was tested, and the IC50 was 22 nM.
